Test results published in patent publication US8741934B2, “Inhibitors of ion channels” (Pfizer Limited, priority 2007, dated 2014).

Each compound was assayed against T1, hSCN3A sodium channels (Homo sapiens, UniProt Q9NY46) (assay: hSCN3A electrophysiology, whole-cell patch-clamp or PatchXpress 7000, estimated IC-50 (Table B)). Conditions: estimated IC-50; hSCN3A cells, whole-cell patch-clamp or PatchXpress 7000; read-out: SCN3A EIC-50.
T1 construct: expressed in transfected cells
T1 sequence (Q9NY46 whole entry): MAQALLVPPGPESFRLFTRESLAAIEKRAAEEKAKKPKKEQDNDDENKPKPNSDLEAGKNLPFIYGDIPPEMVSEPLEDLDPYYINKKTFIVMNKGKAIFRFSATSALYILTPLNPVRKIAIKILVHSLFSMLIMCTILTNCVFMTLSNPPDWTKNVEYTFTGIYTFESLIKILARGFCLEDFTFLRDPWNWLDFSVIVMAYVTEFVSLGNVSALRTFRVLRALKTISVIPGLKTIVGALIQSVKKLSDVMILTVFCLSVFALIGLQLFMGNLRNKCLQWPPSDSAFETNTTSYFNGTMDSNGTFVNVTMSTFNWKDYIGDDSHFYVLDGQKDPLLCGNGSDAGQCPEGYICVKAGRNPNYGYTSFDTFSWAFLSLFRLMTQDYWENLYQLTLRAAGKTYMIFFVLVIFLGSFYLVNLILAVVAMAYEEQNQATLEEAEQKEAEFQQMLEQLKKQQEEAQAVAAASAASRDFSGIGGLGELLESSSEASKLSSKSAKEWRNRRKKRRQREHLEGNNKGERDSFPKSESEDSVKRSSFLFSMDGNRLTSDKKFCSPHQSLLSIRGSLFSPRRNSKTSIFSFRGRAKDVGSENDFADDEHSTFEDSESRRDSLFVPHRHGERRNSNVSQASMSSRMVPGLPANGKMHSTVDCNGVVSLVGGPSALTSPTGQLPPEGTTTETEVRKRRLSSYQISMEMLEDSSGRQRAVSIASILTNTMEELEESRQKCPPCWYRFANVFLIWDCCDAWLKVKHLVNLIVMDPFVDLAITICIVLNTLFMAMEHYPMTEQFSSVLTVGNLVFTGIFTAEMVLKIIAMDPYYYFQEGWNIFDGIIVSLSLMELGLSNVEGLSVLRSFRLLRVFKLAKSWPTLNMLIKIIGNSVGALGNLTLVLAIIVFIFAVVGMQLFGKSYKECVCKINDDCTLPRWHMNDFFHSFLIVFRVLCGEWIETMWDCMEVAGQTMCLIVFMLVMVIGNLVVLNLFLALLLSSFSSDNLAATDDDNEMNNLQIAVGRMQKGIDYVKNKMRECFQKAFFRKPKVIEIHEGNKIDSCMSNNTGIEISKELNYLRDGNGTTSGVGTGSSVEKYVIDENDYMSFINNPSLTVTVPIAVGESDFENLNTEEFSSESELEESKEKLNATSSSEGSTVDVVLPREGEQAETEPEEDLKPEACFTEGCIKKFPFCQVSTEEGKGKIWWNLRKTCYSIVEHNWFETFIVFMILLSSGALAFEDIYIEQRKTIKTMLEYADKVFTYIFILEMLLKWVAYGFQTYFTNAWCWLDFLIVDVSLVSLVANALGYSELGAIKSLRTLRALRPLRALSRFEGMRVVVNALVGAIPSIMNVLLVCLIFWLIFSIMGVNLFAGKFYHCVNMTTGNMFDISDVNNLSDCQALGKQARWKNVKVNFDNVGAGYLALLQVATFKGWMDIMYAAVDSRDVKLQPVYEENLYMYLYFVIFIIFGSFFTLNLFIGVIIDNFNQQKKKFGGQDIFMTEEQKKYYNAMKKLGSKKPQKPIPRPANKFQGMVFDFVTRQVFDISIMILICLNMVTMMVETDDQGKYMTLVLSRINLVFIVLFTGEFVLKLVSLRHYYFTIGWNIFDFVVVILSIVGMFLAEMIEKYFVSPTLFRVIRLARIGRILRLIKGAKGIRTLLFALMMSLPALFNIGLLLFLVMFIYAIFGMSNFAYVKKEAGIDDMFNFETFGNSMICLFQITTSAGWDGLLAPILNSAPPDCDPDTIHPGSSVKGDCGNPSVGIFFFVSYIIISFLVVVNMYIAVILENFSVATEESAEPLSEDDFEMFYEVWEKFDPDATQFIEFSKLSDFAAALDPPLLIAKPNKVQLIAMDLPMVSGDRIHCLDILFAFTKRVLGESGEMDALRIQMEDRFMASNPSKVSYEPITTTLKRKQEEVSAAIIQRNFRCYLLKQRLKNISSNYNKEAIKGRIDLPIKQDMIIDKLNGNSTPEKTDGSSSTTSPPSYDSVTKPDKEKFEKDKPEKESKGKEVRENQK
Type: cell-based
How it was run: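 Stably transfected HEK cells, whole-cell voltage clamp at 22-24° C, manual or PatchXpress 7000. Cells held at empirically determined inactivation V1/2; current evoked by 20 msec step to 0 mV after 8 sec prepulse to V1/2.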
O=C(NCc1ccc(F)c(OC(F)(F)F)c1)c1ccc(S(=O)(=O)Nc2nccs2)c(F)c1 [Example 300, 3-Fluoro-N-[4-fluoro-3-(trifluoromethoxy)benzyl]-4-[(1,3-thiazol-2-ylamino)sulfonyl]benzamide] was tested, and the IC50 was 130 nM. O=C(NCc1ccc(C(F)(F)F)cc1)c1ccc(S(=O)(=O)Nc2cnoc2)cc1 [Example 23, 4-[(Isoxazol-4-ylamino)sulfonyl]-N-[4-(trifluoromethyl)benzyl]benzamide] showed an IC50 of 23300 nM. In the case of O=C(NCc1ccccc1-c1ccccc1)c1ccc(S(=O)(=O)Nc2nccs2)cc1 [Example 415, N-(biphenyl-2-ylmethyl)-4-[(1,3-thiazol-2-ylamino)sulfonyl] benzamide], the IC50 is reported as 380 nM. O=C(NCc1ccc(Cl)c(F)c1)c1ccc(S(=O)(=O)Nc2ncc(Cl)s2)c(Cl)c1 [Example 369, 3-Chloro-N-(4-chloro-3-fluorobenzyl)-4-{[(5-chloro-1,3-thiazol-2-yl)amino]sulfonyl} benzamide] showed an IC50 of 6170 nM. Compound O=C(NCc1ccc(Cl)c(Cl)c1)c1ccc(S(=O)(=O)Nc2ncc(Cl)s2)c(F)c1 [Example 311, 4-{[(5-Chloro-1,3-thiazol-2-yl)amino]sulfonyl}-N-(3,4-dichlorobenzyl)-3-fluorobenzamide] has an IC50 of 60 nM. Work on O=C(NCc1ccc(F)c(C(F)(F)F)c1)c1ccc(S(=O)(=O)Nc2ncc(Cl)s2)cc1F [Example 353, 4-{[(5-Chloro-1,3-thiazol-2-yl)amino]sulfonyl}-2-fluoro-N-[4-fluoro-3-(trifluoromethyl)benzyl]benzamide] yielded an IC50 of 220 nM. With O=C(NCc1ccc(C(F)(F)F)cc1)c1ccc(S(=O)(=O)Nc2ncns2)cc1Cl [Example 377, 2-Chloro-4-[(1,2,4-thiadiazol-5-ylamino)sulfonyl]-N-[4-(trifluoromethyl)benzyl] benzamide] the IC50 was 850 nM. Work on O=C(NCc1ccc(C(F)(F)F)cc1)c1ccc(S(=O)(=O)Nc2nccs2)c(F)c1 [Example 303, 3-Fluoro-4-[(1,3-thiazol-2-ylamino)sulfonyl]-N-[4-(trifluoromethyl)benzyl]benzamide] yielded an IC50 of 140 nM. O=C(NCc1cc(F)cc(F)c1F)c1ccc(S(=O)(=O)Nc2nccs2)cc1 [Example 65, 4-[(1,3-Thiazol-2-ylamino)sulfonyl]-N-(2,3,5-trifluorobenzyl)benzamide] was tested, and the IC50 was 3840 nM. Cc1ccc(CNC(=O)c2ccc(S(=O)(=O)Nc3nccs3)cc2)cc1Cl [Example 400, N-(3-chloro-4-methylbenzyl)-4-[(1,3-thiazol-2-ylamino)sulfonyl] benzamide] was tested, and the IC50 was 70 nM. Cc1noc(NS(=O)(=O)c2ccc(C(=O)NCc3ccc(C(F)(F)F)cc3)cc2)c1C [Example 12, 4-{[(3,4-Dimethylisoxazol-5-yl)amino]sulfonyl}-N-[4-(trifluoromethyl)benzyl]benzamide] showed an IC50 of 29600 nM. With CC(CNC(=O)c1ccc(S(=O)(=O)Nc2nccs2)cc1)c1ccc(Cl)cc1 (stereo not drawn) [Example 133, N-[2-(4-chlorophenyl)propyl]-4-[(1,3-thiazol-2-ylamino)sulfonyl]benzamide] the IC50 was 1150 nM. O=C(c1ccc(S(=O)(=O)Nc2nccs2)cc1)N1CCO[C@@H]2Cc3ccccc3[C@@H]21 [Example 53, 4-[(4aS,9aR)-2,3,9,9a-tetrahydroindeno[2,1-b][1,4]oxazin-4(4aH)-ylcarbonyl]-N-1,3-thiazol-2-ylbenzenesulfonamide] showed an IC50 of 2860 nM. For Cn1cc(NS(=O)(=O)c2ccc(C(=O)NCc3ccc(C(F)(F)F)cc3)cc2)cn1 [Example 10, 4-{[(1-Methyl-1H-pyrazol-4-yl)amino]sulfonyl}-N-[4-(trifluoromethyl)benzyl]benzamide], the IC50 was 1510 nM. Work on O=C(NCc1ccc(C(F)(F)F)cc1)c1ccc(S(=O)(=O)Nc2nncs2)cc1 [Example 21, 4-[(1,3,4-Thiadiazol-2-ylamino)sulfonyl]-N-[4-(trifluoromethyl)benzyl]benzamide] yielded an IC50 of 1970 nM. O=C(NCc1ccc(Cl)c(F)c1)c1ccc(S(=O)(=O)Nc2ncc(Cl)s2)cc1F [Example 355, N-(4-chloro-3-fluorobenzyl)-4-{[(5-chloro-1,3-thiazol-2-yl)amino]sulfonyl}-2-fluorobenzamide] gave an IC50 of 150 nM. With O=C(c1ccc(S(=O)(=O)Nc2nccs2)cc1)N1CCOC[C@H]1c1ccccc1 [Example 48, 4-{[(3R)-3-phenylmorpholin-4-yl]carbonyl}-N-1,3-thiazol-2-ylbenzenesulfonamide] the IC50 was over 1000 nM. For CC(CNC(=O)c1ccc(S(=O)(=O)Nc2nccs2)cc1)Oc1ccccc1Cl (stereo not drawn) [Example 147, N-[2-(2-chlorophenoxy)propyl]-4-[(1,3-thiazol-2-ylamino)sulfonyl]benzamide], the IC50 was 2520 nM. Cc1csc(NS(=O)(=O)c2ccc(C(=O)NCc3ccc(C(F)(F)F)cc3)cc2)n1 [Example 391, 4-{[(4-methyl-1,3-thiazol-2-yl)amino]sulfonyl}-N-[4-(trifluoromethyl)benzyl] benzamide] gave an IC50 of 1350 nM. With O=C(NCCOc1ccccc1Cl)c1ccc(S(=O)(=O)Nc2nccs2)cc1 [Example 148, N-[2-(2-chlorophenoxy)ethyl]-4-[(1,3-thiazol-2-ylamino)sulfonyl]benzamide] the IC50 was 2500 nM. Compound O=C(c1ccc(S(=O)(=O)Nc2nccs2)cc1)N1CCCC1Cc1cccc(Cl)c1 (stereo not drawn) [Example 279, 4-{[2-(3-Chlorobenzyl)pyrrolidin-1-yl]carbonyl}-N-1,3-thiazol-2-yl-benzenesulfonamide] has an IC50 of 2200 nM. Work on COc1cccc(CC2CCCN(C(=O)c3ccc(S(=O)(=O)Nc4nccs4)cc3)C2)c1 (stereo not drawn) [Example 263, 4-{[3-(3-Methoxybenzyl)piperidin-1-yl]carbonyl}-N-1,3-thiazol-2-yl-benzenesulfonamide] yielded an IC50 of 1130 nM. O=C(NCc1cccc(Cl)c1Cl)c1ccc(S(=O)(=O)Nc2nccs2)cc1 [Example 97, N-(2,3-dichlorobenzyl)-4-[(1,3-thiazol-2-ylamino)sulfonyl]benzamide] was tested, and the IC50 was 640 nM. Work on O=C(NCc1cccc(C(F)(F)F)c1)c1ccc(S(=O)(=O)Nc2nccs2)c(F)c1 [Example 302, 3-Fluoro-4-[(1,3-thiazol-2-ylamino)sulfonyl]-N-[3-(trifluoromethyl)benzyl]benzamide] yielded an IC50 of 350 nM. For O=C(c1ccc(S(=O)(=O)Nc2nccs2)cc1)N1CCC(O)(c2cccc(F)c2)CC1 [Example 220, 4-{[4-(3-Fluorophenyl)-4-hydroxypiperidin-1-yl]carbonyl}-N-1,3-thiazol-2-yl-benzenesulfonamide], the IC50 was over 1000 nM. O=C(NCc1cccc(C(F)(F)F)c1F)c1ccc(S(=O)(=O)Nc2nccs2)cc1 [Example 392, N-[2-fluoro-3-(trifluoromethyl)benzyl]-4-[(1,3-thiazol-2-ylamino)sulfonyl]benzamide] was tested, and the IC50 was 230 nM. Cc1noc(C)c1NS(=O)(=O)c1ccc(C(=O)NCc2ccc(C(F)(F)F)cc2)cc1 [Example 26, 4-{[(3,5-Dimethylisoxazol-4-yl)amino]sulfonyl}-N-[4-(trifluoromethyl)benzyl]benzamide] showed an IC50 of over 10000 nM. O=C(NCCc1ccccc1Cl)c1ccc(S(=O)(=O)Nc2nccs2)cc1 [Example 96, N-[2-(2-chlorophenyl)ethyl]-4-[(1,3-thiazol-2-ylamino)sulfonyl]benzamide] gave an IC50 of 910 nM. In the case of CC(C)(NC(=O)c1ccc(S(=O)(=O)Nc2nccs2)cc1)c1ccc(Cl)cc1 [Example 124, N-[1-(4-chlorophenyl)-1-methylethyl]-4-[(1,3-thiazol-2-ylamino)sulfonyl]benzamide], the IC50 is reported as 1810 nM. O=C(NCc1ccc(C(F)(F)F)cc1)c1ccc(S(=O)(=O)Nc2ncc(Cl)s2)cn1 [Example 344, 5-{[(5-Chloro-1,3-thiazol-2-yl)amino]sulfonyl}-N-[4-(trifluoromethyl)benzyl]pyridine-2-carboxamide] gave an IC50 of 520 nM. O=C(NCc1ccc(C(F)(F)F)c(F)c1)c1ccc(S(=O)(=O)Nc2ncc(Cl)s2)cc1 [Example 31, 4-{[(5-Chloro-1,3-thiazol-2-yl)amino]sulfonyl}-N-[3-fluoro-4-(trifluoromethyl)benzyl]benzamide] showed an IC50 of 70 nM. Work on O=C(NCCc1ccc(C(F)(F)F)cc1)c1ccc(S(=O)(=O)Nc2nccs2)cc1 [Example 101, 4-[(1,3-Thiazol-2-ylamino)sulfonyl]-N-{2-[4-(trifluoromethyl)phenyl]ethyl}benzamide] yielded an IC50 of 570 nM. With O=C(NC(c1cccc(C(F)(F)F)c1F)C1CC1)c1ccc(S(=O)(=O)Nc2nccs2)cc1 (stereo not drawn) [Example 119, N-{cyclopropyl[2-fluoro-3-(trifluoromethyl)phenyl]methyl}-4-[(1,3-thiazol-2-ylamino)sulfonyl]benzamide] the IC50 was 1290 nM. Work on O=C(NCc1ccc(Cl)c(Cl)c1)c1ccc(S(=O)(=O)Nc2nccs2)c(Cl)c1 [Example 291, 3-Chloro-N-(3,4-dichlorobenzyl)-4-[(1,3-thiazol-2-ylamino)sulfonyl]benzamide] yielded an IC50 of 710 nM. Work on O=C(c1ccc(S(=O)(=O)Nc2nccs2)cc1)N1CCC(O)(c2ccc(Cl)cc2)CC1 [Example 236, 4-{[4-(4-Chlorophenyl)-4-hydroxypiperidin-1-yl]carbonyl}-N-1,3-thiazol-2-ylbenzenesulfonamide] yielded an IC50 of 3110 nM. O=C(NCc1ccc(Cl)c(F)c1)c1ccc(S(=O)(=O)Nc2nccs2)c(F)c1 [Example 295, N-(4-chloro-3-fluorobenzyl)-3-fluoro-4-[(1,3-thiazol-2-ylamino)sulfonyl]benzamide] showed an IC50 of 220 nM. With O=C(NCc1ccc(Cl)c(Cl)c1)c1ccc(S(=O)(=O)Nc2ncc(Cl)s2)cc1 [Example 35, 4-{[(5-Chloro-1,3-thiazol-2-yl)amino]sulfonyl}-N-(3,4-dichlorobenzyl)benzamide] the IC50 was 40 nM. N#Cc1cccc(CNC(=O)c2ccc(S(=O)(=O)Nc3nccs3)cc2)c1 [Example 180, N-(3-cyanobenzyl)-4-[(1,3-thiazol-2-ylamino)sulfonyl]benzamide] showed an IC50 of over 1000 nM. With O=C(NCCc1cccc(Cl)c1)c1ccc(S(=O)(=O)Nc2nccs2)cc1 [Example 70, N-[2-(3-chlorophenyl)ethyl]-4-[(1,3-thiazol-2-ylamino)sulfonyl]benzamide] the IC50 was over 300 nM.
